Reference: patent US20110105397A1, “METHOD FOR TREATING HEART FAILURE WITH STRESSCOPIN-LIKE PEPTIDES” (priority 2009, published 2011)
Values joined by “and” are separate entries in the source; they are usually repeats but may differ in a detail not shown here. Equal values may be shown once. Read-outs that look alike come from different tables or passages of the source. Where a SMILES comes first, the peptide text is derived from it. Where no end group is shown, it is not given here. The star is where a group is joined. Succinimide(1-Et,3-yl) = CCN1C(=O)CC(*)C1=O

Biological target: T1, human CRHR2 (Homo sapiens, UniProt Q13324)
T1 construct: expressed in transfected cells
T1 sequence (Q13324 1-411): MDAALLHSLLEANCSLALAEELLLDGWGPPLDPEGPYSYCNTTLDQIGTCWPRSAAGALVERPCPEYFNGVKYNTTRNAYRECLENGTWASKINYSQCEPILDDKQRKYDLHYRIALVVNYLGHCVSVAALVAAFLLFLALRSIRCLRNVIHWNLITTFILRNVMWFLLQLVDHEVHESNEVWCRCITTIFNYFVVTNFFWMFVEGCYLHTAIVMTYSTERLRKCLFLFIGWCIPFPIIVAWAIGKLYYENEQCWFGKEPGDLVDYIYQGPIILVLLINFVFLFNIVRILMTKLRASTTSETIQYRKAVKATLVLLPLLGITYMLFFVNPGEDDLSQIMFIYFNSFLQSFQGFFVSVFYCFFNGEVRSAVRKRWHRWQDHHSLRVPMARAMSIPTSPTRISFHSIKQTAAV
Test: cAMP assay, h-CRHR2 transfected SK-N-MC cells
Assay type: cell-based
Settings: for EC50: read-out: pA50 (converted); for Log DR [M]: h-SCP control pA50 minus test compound pA50 within the same assay batch; for αmax: normalized to the maximum response to h-SCP
Description: The concentration required for 50% maximum effect (A50) was 0.4 nM.
Human CRHR1 (accession number X72304) or CRHR2 (accession number U34587) were cloned into pcDNA3.1/Zeo expression vector and stably transfected into SK—N-MC cells by electroporation. Cells were maintained in MEM w/Earl's Salt with 10% FBS, 50 I.U. penicillin, 50 μg/ml streptomycin, 2 mM L-glutamine, 1 mM sodium pyruvate and 0.1 mM non-essential amino acids, 600 μg/ml G418. Cells were grown at 37° C. in 5% CO2
Cells were plated in 96-well tissue culture dishes (Biocoat from BD Biosciences) overnight at 50,000 cell/well. Cells were washed with PBS then resuspended in DMEM F-12 without phenol red, containing 10 μM isobutylmethylxanthine (IBMX). Cells were incubated with the peptides at concentrations ranging from 1 pM to 10 μM for 60 min at 37° Celsius. […] Forskolin (10 μM), a direct stimulant of adenylate cyclase, was used as positive control. The assays were stopped by the addition of 0.5 M HCl and mixing by orbital rotation for 2 h at 4° Celsius.
To assess the activity of the inventive polypeptide at the CRHR2, an intracellular cAMP measurement test using a Flash plate radioactive assay (Catalog No. Cus56088; Perkin Elmer, Mass., U.S.A.) was employed.
Transfected SK—N-MC cells were plated in 96-well Biocoat tissue culture dishes (BD Biosciences, San Jose, Calif., U.S.A) overnight at 50,000 cell/well. Cells were first washed with PBS and then suspended with DMEM/F-12 without phenol red, containing […]. Suspended cells were transferred into a 96-well flash plate coated with scintillant fluid. Cells were incubated with peptides ranging from 1 pM to 1 μM, for 60 min, at 37° Celsius. Forskolin at 10 μM was used as positive control. After ligand stimulation, cells were lysed by the addition of 0.5M HCl and mixed by orbital rotation for 2 h at 4° Celsius in order to release intracellular cAMP into the media.
Media containing released intracellular cAMP was transferred to a 96-well flash plate coated with scintillant fluid containing an anti-cAMP antibody. In this assay, intracellular cAMP competes with ^125I-labeled cAMP binding to the antibody. To generate a standard curve, cAMP ranging from 2.5 to 250 pmoles/ml was included in the experiment. [^125I]-cAMP was measured on a TopCount scintillation counter (Perkin Elmer, Mass., U.S.A).
Individual agonist concentration-response curve data were fitted to the Hill equation, see formula below, using GraphPad Prism (Graphpad Software, La Jolla, Calif., U.S.A.), to provide estimates of agonist concentration needed to generate one-half maximal response (A50), and the maximal asymptote (α) and Hill slope (nH) parameters. In this equation, [A] is the agonist concentration and E is the measured effect:
For display purposes the mean fitted parameter estimates were used to generate a single E/[A] curve shown superimposed on the mean experimental data. Potency estimates for agonists, pA50, are expressed as the negative logarithm of the midpoint of each curve and listed with their standard error of measurement (SEM). Logarithm base 10 of the agonist dose ratio (Log DR) values were calculated by subtraction of the test compound pA50 value from the corresponding h-SCP (SEQ ID NO:1) control pA50 value within the same assay batch. The SEM values of the Log DR values are given by the square root of the sum of the squared SEM values of the h-SCP (SEQ ID NO:1) control and test compound pA50 values.
Human and rat peptides (see Table 10) were used on the stimulation of h-CRHR1 or h-CRHR2 transfected SK—N-MC cells in the cAMP flash plate assay. Peptides were incubated for 1 hr at 37° Celsius. Curves were calculated using non-linear regression sigmoidal concentration-response analysis calculation in GraphPad Prism. The so obtained pA50 values are shown in Table 11 in addition to literature values. […]

[1] = Table 13, cysteine mutation, N-ethylmaleimide capping, pegylation
[2] = Table 12, amidation and N-terminal deletions, normalized to maximum response to h-SCP, 3-5 replicate experiments

CC[C@H](C)[C@H](NC(=O)[C@H](CCC(N)=O)NC(=O)[C@H](C)NC(=O)[C@H](CCSC)NC(=O)[C@H](CC(C)C)NC(=O)[C@H](Cc1c[nH]cn1)NC(=O)[C@H](C)NC(=O)[C@H](CC(N)=O)NC(=O)[C@H](C)NC(=O)[C@H](C)NC(=O)[C@H](C)NC(=O)[C@H](CCC(N)=O)NC(=O)[C@H](C)NC(=O)[C@H](CCCNC(=N)N)NC(=O)[C@H](CC(C)C)NC(=O)[C@H](CC(N)=O)NC(=O)[C@H](CCCCN)NC(=O)[C@H](C)NC(=O)[C@H](CCCCN)NC(=O)[C@H](C)NC(=O)[C@H](CSC1CC(=O)N(CC)C1=O)NC(=O)[C@H](CC(N)=O)NC(=O)[C@H](Cc1ccccc1)NC(=O)[C@H](CC(C)C)NC(=O)[C@H](CC(C)C)NC(=O)[C@H](CC(N)=O)NC(=O)[C@H](CCSC)NC(=O)[C@@H](NC(=O)[C@H](CC(N)=O)NC(=O)[C@@H](NC(=O)[C@@H]1CCCN1C(=O)[C@@H](NC(=O)[C@H](CC(=O)O)NC(=O)[C@H](CC(C)C)NC(=O)[C@H](CO)NC(=O)[C@H](CC(C)C)NC(=O)[C@@H](NC(=O)[C@H](Cc1ccccc1)NC(=O)[C@H](CCCCN)NC(=O)[C@@H](N)[C@@H](C)O)[C@@H](C)O)C(C)C)[C@@H](C)O)[C@@H](C)CC)C(N)=O (stereo partly shown) [SEQ ID NO: 51, TKFTL SLDVP TNIMN LLFNC(-NES) AKAKN LRAQA AANAH LMAQI-NH2] (H-TKFTLSLDVPTNIMNLLFNC(Succinimide(1-Et,3-yl))AKAKNLRAQAAANAHLMAQI-NH2; N-terminus assumed) was tested, and the EC50 [1] was 1.62 nM and the “Log DR [M]” value (Table 13) was 0.68.
In the case of “TKFTLSLDVPTNICNLLFNIAKAKNLRAQAAANAHLMAQI-NH2 [SEQ ID NO: 15, TKFTLSLDVPTNICNLLFNIAKAKNLRAQAAANAHLMAQI-NH2]”, the EC50 [1] is reported as 2.09 nM and the “Log DR [M]” value (Table 13) is reported as 0.90.
For “TKFTLSLDVPTNIMNLLFNIAKACNLRAQAAANAHLMAQI-NH2 [SEQ ID NO: 25, TKFTLSLDVPTNIMNLLFNIAKACNLRAQAAANAHLMAQI-NH2]”, the EC50 [1] was 0.676 nM and the “Log DR [M]” value (Table 13) was 0.35.
With CC[C@H](C)[C@H](NC(=O)[C@H](CCC(N)=O)NC(=O)[C@H](C)NC(=O)[C@H](CCSC)NC(=O)[C@H](CC(C)C)NC(=O)[C@H](CSC1CC(=O)N(CC)C1=O)NC(=O)[C@H](C)NC(=O)[C@H](CC(N)=O)NC(=O)[C@H](C)NC(=O)[C@H](C)NC(=O)[C@H](C)NC(=O)[C@H](CCC(N)=O)NC(=O)[C@H](C)NC(=O)[C@H](CCCNC(=N)N)NC(=O)[C@H](CC(C)C)NC(=O)[C@H](CC(N)=O)NC(=O)[C@H](CCCCN)NC(=O)[C@H](C)NC(=O)[C@H](CCCCN)NC(=O)[C@H](C)NC(=O)[C@@H](NC(=O)[C@H](CC(N)=O)NC(=O)[C@H](Cc1ccccc1)NC(=O)[C@H](CC(C)C)NC(=O)[C@H](CC(C)C)NC(=O)[C@H](CC(N)=O)NC(=O)[C@H](CCSC)NC(=O)[C@@H](NC(=O)[C@H](CC(N)=O)NC(=O)[C@@H](NC(=O)[C@@H]1CCCN1C(=O)[C@@H](NC(=O)[C@H](CC(=O)O)NC(=O)[C@H](CC(C)C)NC(=O)[C@H](CO)NC(=O)[C@H](CC(C)C)NC(=O)[C@@H](NC(=O)[C@H](Cc1ccccc1)NC(=O)[C@H](CCCCN)NC(=O)[C@@H](N)[C@@H](C)O)[C@@H](C)O)C(C)C)[C@@H](C)O)[C@@H](C)CC)[C@@H](C)CC)C(N)=O (stereo partly shown) [SEQ ID NO: 43, TKFTLSLDVPTNIMNLLFNIAKAKNLRAQAAANAC(-NES) LMAQI-NH2] (H-TKFTLSLDVPTNIMNLLFNIAKAKNLRAQAAANAC(Succinimide(1-Et,3-yl))LMAQI-NH2) the EC50 [1] was 0.162 nM and the “Log DR [M]” value (Table 13) was −0.32.
In the case of “TLSLDVPTNIMNLLFNIAKAKNLRAQAAANAHLMAQI-NH2 [SEQ ID NO: 108, TLSLDVPTNIMNLLFNIAKAKNLRAQAAANAHLMAQI-NH2]”, the nH (Table 12) is reported as 0.82, the EC50 [2] is reported as 3.24 nM and the αmax (Table 12) is reported as 106.3.
In the case of “TKFTLSLDVPTCIMNLLFNIAKAKNLRAQAAANAHLMAQI-NH2 [SEQ ID NO: 13, TKFTLSLDVPTCIMNLLFNIAKAKNLRAQAAANAHLMAQI-NH2]”, the EC50 [1] is reported as 0.257 nM and the “Log DR [M]” value (Table 13) is reported as −0.01.
“TKFTLSLDVPTNIMNLCFNIAKAKNLRAQAAANAHLMAQI-NH2 [SEQ ID NO: 18, TKFTLSLDVPTNIMNLCFNIAKAKNLRAQAAANAHLMAQI-NH2]” was tested, and the EC50 [1] was 3.89 nM and the “Log DR [M]” value (Table 13) was 1.11.
For “TKFTLSLDVPTNIMNLLFNIAKAKNLRAQAAANAHCMAQI-NH2 [SEQ ID NO: 37, TKFTLSLDVPTNIMNLLFNIAKAKNLRAQAAANAHCMAQI-NH2]”, the EC50 [1] was 2.63 nM and the “Log DR [M]” value (Table 13) was 1.05.
For “TKFTLSLDVPTNIMNLLFNCAKAKNLRAQAAANAHLMAQI-NH2 [SEQ ID NO: 21, TKFTLSLDVPTNIMNLLFNCAKAKNLRAQAAANAHLMAQI-NH2]”, the EC50 [1] was 1.78 nM and the “Log DR [M]” value (Table 13) was 0.77.
For CC[C@H](C)[C@H](NC(=O)[C@H](CCC(N)=O)NC(=O)[C@H](C)NC(=O)[C@H](CCSC)NC(=O)[C@H](CC(C)C)NC(=O)[C@H](Cc1c[nH]cn1)NC(=O)[C@H](C)NC(=O)[C@H](CC(N)=O)NC(=O)[C@H](C)NC(=O)[C@H](C)NC(=O)[C@H](C)NC(=O)[C@H](CCC(N)=O)NC(=O)[C@H](CSC1CC(=O)N(CC)C1=O)NC(=O)[C@H](CCCNC(=N)N)NC(=O)[C@H](CC(C)C)NC(=O)[C@H](CC(N)=O)NC(=O)[C@H](CCCCN)NC(=O)[C@H](C)NC(=O)[C@H](CCCCN)NC(=O)[C@H](C)NC(=O)[C@@H](NC(=O)[C@H](CC(N)=O)NC(=O)[C@H](Cc1ccccc1)NC(=O)[C@H](CC(C)C)NC(=O)[C@H](CC(C)C)NC(=O)[C@H](CC(N)=O)NC(=O)[C@H](CCSC)NC(=O)[C@@H](NC(=O)[C@H](CC(N)=O)NC(=O)[C@@H](NC(=O)[C@@H]1CCCN1C(=O)[C@@H](NC(=O)[C@H](CC(=O)O)NC(=O)[C@H](CC(C)C)NC(=O)[C@H](CO)NC(=O)[C@H](CC(C)C)NC(=O)[C@@H](NC(=O)[C@H](Cc1ccccc1)NC(=O)[C@H](CCCCN)NC(=O)[C@@H](N)[C@@H](C)O)[C@@H](C)O)C(C)C)[C@@H](C)O)[C@@H](C)CC)[C@@H](C)CC)C(N)=O (stereo partly shown) [SEQ ID NO: 47, TKFTLSLDVPTNIMNLLFNIAKAKNLRC(-NES)QA AANAH LMAQI-NH2] (H-TKFTLSLDVPTNIMNLLFNIAKAKNLRC(Succinimide(1-Et,3-yl))QAAANAHLMAQI-NH2), the EC50 [1] was 0.316 nM and the “Log DR [M]” value (Table 13) was −0.03.
“TKFTLSLDVPTNIMNLLFNIACAKNLRAQAAANAHLMAQI-NH2 [SEQ ID NO: 23, TKFTLSLDVPTNIMNLLFNIACAKNLRAQAAANAHLMAQI-NH2]” was tested, and the EC50 [1] was 2.82 nM and the “Log DR [M]” value (Table 13) was 1.13.
With “H-TKFTLSLDVPTNIMNLLFNIAKAKNLRAQAACNAHLMAQI-NH2 [SEQ ID NO: 33, TKFTLSLDVPTNIMNLLFNIAKAKNLRAQAACNAHLMAQI-NH2]” the EC50 [1] was 0.851 nM and the “Log DR [M]” value (Table 13) was 0.45.
For “KFTLSLDVPTNIMNLLFNIAKAKNLRAQAAANAHLMAQI-NH2 [SEQ ID NO: 107, KFTLSLDVPTNIMNLLFNIAKAKNLRAQAAANAHLMAQI-NH2]”, the nH (Table 12) was 1.07, the EC50 [2] was 0.575 nM and 0.562 nM and the αmax (Table 12) was 111.3.
